For data set [1] the following is noted: amide bond, 13-membered ring, DMF, 25.0 °C, 0.33 h.
In another data set the target is CFTR (Homo sapiens, UniProt P13569). Briefly: standard Ussing Chamber Assay for CFTR potentiator activity. It is filed as cell-based. As to conditions: qualitative statement.

Like-named read-outs stand apart in the source and are kept apart here.

CFTR, sequence (P13569 whole entry, species assumed): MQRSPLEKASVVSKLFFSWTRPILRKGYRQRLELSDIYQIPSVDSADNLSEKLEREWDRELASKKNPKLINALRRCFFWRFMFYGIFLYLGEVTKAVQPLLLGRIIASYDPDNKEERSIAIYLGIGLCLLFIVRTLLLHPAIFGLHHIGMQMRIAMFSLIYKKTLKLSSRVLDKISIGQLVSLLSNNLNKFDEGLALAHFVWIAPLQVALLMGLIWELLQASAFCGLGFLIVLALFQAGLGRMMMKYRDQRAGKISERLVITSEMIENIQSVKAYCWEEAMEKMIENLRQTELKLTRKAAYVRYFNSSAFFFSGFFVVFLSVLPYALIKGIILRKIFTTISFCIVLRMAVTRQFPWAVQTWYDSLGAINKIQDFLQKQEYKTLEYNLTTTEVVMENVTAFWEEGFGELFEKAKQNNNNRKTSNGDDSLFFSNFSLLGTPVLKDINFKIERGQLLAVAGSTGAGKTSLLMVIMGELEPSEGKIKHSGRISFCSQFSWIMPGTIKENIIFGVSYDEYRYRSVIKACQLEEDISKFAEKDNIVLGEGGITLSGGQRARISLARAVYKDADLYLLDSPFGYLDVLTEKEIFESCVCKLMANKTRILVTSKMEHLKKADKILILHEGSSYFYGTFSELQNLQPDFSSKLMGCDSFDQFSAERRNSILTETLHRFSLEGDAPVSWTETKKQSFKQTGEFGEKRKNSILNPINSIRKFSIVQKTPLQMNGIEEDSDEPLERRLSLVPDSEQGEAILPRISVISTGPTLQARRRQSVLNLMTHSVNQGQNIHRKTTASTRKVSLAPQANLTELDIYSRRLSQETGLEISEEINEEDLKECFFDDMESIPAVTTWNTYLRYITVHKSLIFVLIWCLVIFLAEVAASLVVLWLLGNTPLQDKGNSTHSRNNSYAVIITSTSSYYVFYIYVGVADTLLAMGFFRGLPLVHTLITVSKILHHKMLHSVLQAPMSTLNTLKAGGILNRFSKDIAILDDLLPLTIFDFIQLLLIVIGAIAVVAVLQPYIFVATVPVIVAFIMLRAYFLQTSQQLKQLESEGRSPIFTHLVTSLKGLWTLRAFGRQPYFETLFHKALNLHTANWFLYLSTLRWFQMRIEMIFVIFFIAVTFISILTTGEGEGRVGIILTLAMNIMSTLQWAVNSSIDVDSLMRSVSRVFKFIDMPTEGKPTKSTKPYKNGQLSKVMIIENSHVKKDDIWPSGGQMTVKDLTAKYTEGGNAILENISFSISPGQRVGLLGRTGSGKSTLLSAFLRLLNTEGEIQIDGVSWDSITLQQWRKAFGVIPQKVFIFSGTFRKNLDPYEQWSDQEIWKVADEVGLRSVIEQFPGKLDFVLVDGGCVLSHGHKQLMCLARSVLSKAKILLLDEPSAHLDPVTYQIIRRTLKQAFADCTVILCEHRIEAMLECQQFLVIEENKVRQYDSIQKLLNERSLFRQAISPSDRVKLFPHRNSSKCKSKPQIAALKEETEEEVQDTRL

`COCN1c2nc(cc(-c3c(C)cccc3C)n2)OC[C@@H](CC(C)C)NC(=O)c2cccc(c2)S1(=O)=O` had a ring closure, crude yield in data set [1] (from COCN(c1nc(OC[C@H](N)CC(C)C)cc(-c2c(C)cccc2C)n1)S(=O)(=O)c1cccc(C(=O)O)c1, HATU/Et3N, 106.0 mM) of 100%.
As for `C[C@@H]1CCCCC[C@](O)(C(F)(F)F)C2=NN=C(O2)c2nc(c(C(F)(F)F)cc2N)O1` [(6R,12R)-17-amino-12-methyl-6,15-bis(trifluoromethyl)-13,19-dioxa-3,4,18-triazatricyclo[12.3.1.12,5]nonadeca-1(18),2,4,14,16-pentaen-6-ol], the CFTR modulatory activity result at CFTR is “confirmed”.
In the case of `CCOC(=O)CCCCN1C(=O)c2cccc(n2)S(=O)(=O)Nc2nc(cc(-c3c(C)cccc3C)n2)OC[C@H]1CC(C)(C)C`, the ring closure, crude yield in data set [1] (from CCOC(=O)CCCCN[C@@H](COc1cc(-c2c(C)cccc2C)nc(NS(=O)(=O)c2cccc(C(=O)O)n2)n1)CC(C)(C)C, HATU/DIEA, 26.1 mM) amounted to 100%.
